Patent US12668589B2, “N-formamidopyrazoline derivative as P2X3 receptor antagonist and use thereof” (HANGZHOU WESTAN PHARMACEUTICAL TECHNOLOGY CO., LTD, priority 2020, dated 2026)
Read-outs that look alike come from different tables or passages of the source.

Legend:
[1] = target: T1, rP2X3 (Rattus norvegicus, UniProt P49654); experiment: Inhibitory activity against P2X3 in rats (electrophysiological method); assay type: cell-based
T1 construct: expressed in transfected cells; host or cells: HEK293
T1 sequence (P49654 1-397): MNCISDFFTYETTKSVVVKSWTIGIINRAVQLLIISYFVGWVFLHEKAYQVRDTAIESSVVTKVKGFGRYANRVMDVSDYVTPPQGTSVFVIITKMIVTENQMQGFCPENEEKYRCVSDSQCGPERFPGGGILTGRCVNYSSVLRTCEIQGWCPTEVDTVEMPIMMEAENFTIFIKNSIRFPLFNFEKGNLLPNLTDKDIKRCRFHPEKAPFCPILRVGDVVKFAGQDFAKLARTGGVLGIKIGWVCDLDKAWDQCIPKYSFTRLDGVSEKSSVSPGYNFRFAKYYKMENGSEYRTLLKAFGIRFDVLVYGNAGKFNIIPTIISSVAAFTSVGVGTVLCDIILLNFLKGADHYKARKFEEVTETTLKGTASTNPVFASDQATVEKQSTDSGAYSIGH

[2] = target: T2, human P2X4 (Homo sapiens, UniProt Q99571); experiment: Inhibitory activity against human P2X4 (electrophysiological method); assay type: cell-based; details: read-out: hP2X4 (IC50)
T2 construct: expressed in transfected cells; host or cells: HEK293
T2 sequence (Q99571 1-388): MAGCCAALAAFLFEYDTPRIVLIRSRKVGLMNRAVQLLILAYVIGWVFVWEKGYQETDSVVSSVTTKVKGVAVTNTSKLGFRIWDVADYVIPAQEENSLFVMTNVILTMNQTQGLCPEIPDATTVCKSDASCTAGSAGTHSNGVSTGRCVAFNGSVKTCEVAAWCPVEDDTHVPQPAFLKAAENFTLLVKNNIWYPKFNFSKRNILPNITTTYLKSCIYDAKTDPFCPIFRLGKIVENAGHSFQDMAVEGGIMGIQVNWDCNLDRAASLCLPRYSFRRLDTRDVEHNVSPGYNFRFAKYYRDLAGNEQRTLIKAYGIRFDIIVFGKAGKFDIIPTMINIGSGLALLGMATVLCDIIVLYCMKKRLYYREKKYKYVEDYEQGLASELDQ

[3] = target: T3, human P2X2/3 (Homo sapiens, UniProt P56373+Q9UBL9); experiment: Inhibitory activity against human P2X2/3 (electrophysiological method); assay type: cell-based; details: read-out: hP2X2/3 (IC50)
T3 construct: expressed in transfected cells; host or cells: HEK293
T3 sequence (P56373 1-397): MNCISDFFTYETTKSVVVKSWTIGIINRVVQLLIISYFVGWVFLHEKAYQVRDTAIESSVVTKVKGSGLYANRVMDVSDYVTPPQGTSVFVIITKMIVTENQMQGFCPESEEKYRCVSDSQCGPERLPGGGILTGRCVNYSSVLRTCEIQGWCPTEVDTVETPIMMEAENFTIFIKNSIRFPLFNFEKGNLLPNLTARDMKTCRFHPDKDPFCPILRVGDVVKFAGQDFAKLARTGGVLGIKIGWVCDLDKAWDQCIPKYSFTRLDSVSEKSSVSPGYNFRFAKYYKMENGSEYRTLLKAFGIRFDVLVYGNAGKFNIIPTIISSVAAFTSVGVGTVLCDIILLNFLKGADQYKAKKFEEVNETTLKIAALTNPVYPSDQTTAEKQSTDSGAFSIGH
T3 sequence (Q9UBL9 1-471): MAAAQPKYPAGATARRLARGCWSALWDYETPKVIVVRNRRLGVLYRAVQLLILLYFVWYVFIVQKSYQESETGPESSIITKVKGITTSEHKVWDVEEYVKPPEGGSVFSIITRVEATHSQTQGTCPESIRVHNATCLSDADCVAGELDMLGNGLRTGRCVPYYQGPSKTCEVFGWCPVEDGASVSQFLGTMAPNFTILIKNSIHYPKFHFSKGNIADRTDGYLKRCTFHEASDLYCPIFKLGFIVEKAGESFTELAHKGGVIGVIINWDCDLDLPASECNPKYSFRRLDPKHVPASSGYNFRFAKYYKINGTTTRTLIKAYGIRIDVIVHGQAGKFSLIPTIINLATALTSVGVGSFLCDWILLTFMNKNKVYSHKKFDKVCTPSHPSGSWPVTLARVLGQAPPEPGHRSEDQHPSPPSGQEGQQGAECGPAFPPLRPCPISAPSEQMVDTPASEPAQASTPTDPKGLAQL

[4] = target: T4, human P2X3 (Homo sapiens, UniProt P56373); experiment: cell-based
T4 sequence (P56373 1-397): T3 sequence (P56373 1-397)
Protocol: An HEK293 cell line was used as cells. HEK293 cells were placed in a 37° C. incubator with 5% CO2 for culture. Passage was conducted when the cells grew to a density of 80% to 90%. A culture medium in an original 60 mm culture dish was discarded. After the cells were washed 3 times with a sterilized PBS solution, and the solution was blotted up. […] After the trypsin was blotted up, 3 mL of a cell culture medium was added to resuspend the cells. 0.5 mL of a resuspension solution was taken to be added into a new culture dish, and an total culture solution was supplemented to 5 mL. The culture dish was gently shaken to distribute the cells evenly, and then placed in a 37° C. incubator with 5% CO2 for culture.
First, treated slides were spread in a small 35 mm culture dish. 100 μL of resuspended cells were added, and then a total amount of a culture medium was supplemented to 2 mL. Target genes were transferred into the HEK293 cell line by adopting a calcium transfection method. Small dishes to be transfected were subjected to medium change 1 hour before transfection. 2 mL of a fresh cell culture solution was added. A 1.5 mL EP tube was taken, 200 μL of a 0.25 M CaCl2) solution was added, and 3 μg of plasmids to be transfected were added, and even mixing was conducted to form a DNA-CaCl2 solution. […] A pipette tip was used for mixing while adding. After adding all, gentle blowing and beating were conducted 8 to 10 times. After still standing for 5 minutes, they were added into small dishes. The small dishes were shaken slightly to mix the solution evenly, and the placed in a cell incubator. Culture mediums were replaced after 8 to 10 hours. Electrophysiological experiments were performed 24 to 48 hours after transfection.
Electrophysiological recording electrodes were obtained by two-step pulling by using an electrode puller (PP-10, Narishige). After an internal solution is injected into the electrodes, a water inlet resistance is 3 to 5 MΩ. During the experiment, a high potassium salt internal solution containing nystatin (K2SO4 of 75 mM, KCl of 120 mM, MgSO4 of 5 mM, HEPES of 10 mM, adjusting pH to 7.2 with Tris-base, and used after filtration) was used as an electrode internal solution. After the cells were sealed by the electrodes, there was no need to further break cell membranes in a sucked manner, but the cell membranes were bored through the perforation of the nystatin to the cell membranes, to form a hole channel. […] A clamping voltage was −60 mV, a sampling frequency was 10 kHz, and filtering was conducted at 2 kHz.
A working concentration of a P2X3 receptor agonist ATP was 1 μM, and an interval time between two times of ATP administrations was 10 minutes.

[5] = In-vivo pharmacokinetic experiments on rats; parameters: species or system SD rats; details: for clearance / half-life / Cmax / Vd / Tmax / bioavailability: both sexes, SD, plasma; for Vd: read-out: Vss
Protocol: SD rats were used, half male and half female, which were administered with compounds by intravenous injection (3 mg/kg), intraperitoneal injection (10 mg/kg) or gavage (30 mg/kg) at different doses. At different time points after administration, blood was collected into EDTA blood sample collection tubes. Plasma was separated by centrifugation and stored at −20° C. pending analysis.
Standard curve and quality control sample preparation and processing: a compound stock solution was taken and diluted with 50% methanol water to make standard working solutions containing each compound concentration of 20 to 10,000 ng/mL, and 60, 600, 6,000 ng/mL quality control working solutions. 47.5 μL of blank rat plasma was taken, respectively, in which 2.50 μL of the standard curve working solutions and quality control working solutions were added to prepare standard curve samples with each compound concentration of 1.00 to 500.00 ng/mL and quality control samples with concentrations of 3.00, 30.00 and 300.00 ng/mL. 200 μL of acetonitrile (containing 5 ng/mL internal standard verapamil) was added into each sample. After vortex oscillation for 3 minutes, centrifuging was conducted for 15 minutes at 20,000 rcf at 4° C. Supernatants were taken for LC-MS/MS analysis.
Compound blood sample processing: 5 μL of plasma samples were taken. 45 μL of Blank rat plasma was added. 200 μL of Acetonitrile (containing 5 ng/mL internal standard verapamil) was added. After vortex oscillation for 3 minutes, centrifuging was conducted for 15 minutes at 20,000 rcf at 4° C. Supernatants were taken for LC-MS/MS analysis.

[6] = iv, Rat PK i.v 3 mg/kg, read-out: Cmax/Co
[7] = po, Rat PK p.o 30 mg/kg, read-out: Cmax

Row | Structure (SMILES) | IC50 [1] [nM] | IC50 [2] [nM] | IC50 [3] [nM] | IC50 [4] [nM] | ACU ([5]; Rat PK i.v 3 mg/kg) [kg·ng·h/mL/mg] | ACU ([5]; Rat PK p.o 30 mg/kg) [kg·ng·h/mL/mg] | clearance ([5]; iv, Rat PK i.v 3 mg/kg) [mL/min/kg] | half-life ([5]; iv, Rat PK i.v 3 mg/kg) [h] | Cmax [5, 6] [ng/mL] | Vd ([5]; iv, Rat PK i.v 3 mg/kg) [L/kg] | Tmax ([5]; po, Rat PK p.o 30 mg/kg) [h] | bioavailability ([5]; po, Rat PK p.o 30 mg/kg) [%] | half-life ([5]; po, Rat PK p.o 30 mg/kg) [h] | Cmax [5, 7] [ng/mL]
1 | Cc1ccc(C2=NN(C(=O)N[C@H](C)c3ccc(C(F)(F)F)nc3)C[C@@H]2N2CCOC2=O)cc1 [Compound 22] | 90 | > 20000 | 2420 | 56 | 275.63 | 766 | 26.5 | 1.31 | 2210 | 2.8 | 0.92 | 36 | 2.71 | 1450
2 | CCOC(=O)N(C)[C@H]1CN(C(=O)N[C@H](C)c2cnc(C(F)(F)F)nc2)N=C1c1ccc(C)cc1 [Compound 4, (S)-4-(N-methyl-N-ethoxycarbonylamino)-3-(4-methylphenyl)-N-((R)-1-(2-(trifluoromethyl)pyrimidin-5-yl)ethyl)-4,5-dihydro-1H-pyrazol-1-carboxamide] | 165 |  |  |  | 427.84 | 367.68 | 39.2 | 0.6 | 1750 | 2.05 | 1.8 | 86 | 2.23 | 4950
